The structures appear in SMILES notation. Calls of active or inactive are those of the source. The calls are words filed in the database; no cut-off is given here.

Assay [1] deals with Rattus norvegicus. The assay is described as follows: Effect on urinary excretion of prostaglandin in adenine rich diet fed LWH:Wistar rat assessed as urine prostaglandin E2 level per 24 hrs at […], ip administered from day 7 to day 12 of adenine ingestion. In kind it is functional.
For assay [2], the system named is Rattus norvegicus. The assay is described as follows: Effect on urinary excretion of prostaglandin in adenine rich diet fed LWH:Wistar rat assessed as urine 6-keto-PGF1-alpha level per 24 hrs at […], ip administered from day 7 to day 12 of adenine ingestion. In kind it is functional.
Assay [3] relates to Rattus norvegicus. The assay can be described thus: Effect on urinary excretion of prostaglandin in adenine rich diet fed LWH:Wistar rat assessed as urine TXB2 level per 24 hrs at […], ip administered from day 7 to day 12 of adenine ingestion. In kind it is functional.
Assay [4] relates to Rattus norvegicus. The assay is described as follows: Decrease in urinary excretion of thromboxane B2 in adenine rich diet fed LWH:Wistar rat at […], ip administered from day 7 to day 12 of adenine ingestion. On the set-up: scale not given: the % may be the effect or the level left. In kind it is functional, Urine.
Assay [5] has as its system Rattus norvegicus. The assay is described as follows: Protection against renal failure in adenine rich diet fed LWH:Wistar rat up to […], ip administered once daily from day 7 to day 12 of adenine ingestion. The class given is functional, organism-based.
For assay [6], the system named is Rattus norvegicus. The assay can be described thus: Increase in urinary excretion of prostaglandin E2 in adenine rich diet fed LWH:Wistar rat at […], ip administered from day 7 to day 12 of adenine ingestion. The class given is functional, organism-based. To be noted: Urine.

Turning to `O=C(/C=C/c1ccc(O)c2c1[C@H](C(=O)O[C@H](Cc1ccc(O)c(O)c1)C(=O)[O-])[C@@H](c1ccc(O)c(O)c1)O2)O[C@H](Cc1ccc(O)c(O)c1)C(=O)[O-].[Mg+2]` [MAGNESIUM LITHOSPERMATE B], the Activity with Rattus norvegicus [1] amounted to 72.5 ng; with Rattus norvegicus [2], 20.7 ng; in the assay with Rattus norvegicus [3] it was 23.3 ng; in the assay on Rattus norvegicus [4], 36%. For the same molecule, the outcome with Rattus norvegicus [5] and in the assay with Rattus norvegicus [6] was Active.
